Nine molecules from PubChem BioAssay (NCI) can be followed below.

Values joined by “and” are separate entries in the source; they are usually repeats but may differ in a detail not shown here. Identical values can stand only once.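 Five compound concentrations were applied to cells in 96-well plates for 48 hours; endpoints were derived by simple linear interpolation of the resulting dose-response curve. GI50 = concentration required for 50% inhibition of growth. TGI marks complete inhibition of growth.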

Test systems include MOLT-4 leukemia; HOP-62 NSCLC; HCT-116 colon; OVCAR-8 ovarian; SF-268 CNS; SK-MEL-5 melanoma; U251 CNS; HOP-92 NSCLC; HCT-15 colon; HCC-2998 colon.
What all share (assay): DTP human tumour cell line panel, 48 h

For orientation: TGI means the concentration at which net growth stops. On to `c1ccc2[nH]c(-c3cscn3)nc2c1`, for which the concentration for total growth inhibition (TGI) in the assay on MOLT-4 leukemia was more than 100 µM; in the assay on HOP-62 NSCLC, > 100 µM and 19.6 µM; in the assay on HCT-116 colon, more than 100 µM; with OVCAR-8 ovarian it was more than 100 µM; with SF-268 CNS it was more than 100 µM; with SK-MEL-5 melanoma, more than 100 µM. For the same molecule, the TGI with U251 CNS, with HOP-92 NSCLC, in the assay on HCT-15 colon and in the assay on HCC-2998 colon was more than 100 µM throughout.

Broadly, the GI50 is the concentration giving 50% growth inhibition. `CN1CCC(C(=O)Nc2n[nH]c3nnc(-c4ccccc4)cc23)CC1`: the GI50 was more than 25 µM in the assay on MOLT-4 leukemia; more than 25 µM in the assay on HOP-62 NSCLC; more than 23.6 µM in the assay with HCT-116 colon; more than 25 µM in the assay with OVCAR-8 ovarian; more than 25 µM in the assay on SF-268 CNS; 14.6 µM in the assay with SK-MEL-5 melanoma. Also, the GI50 is more than 25 µM with U251 CNS, 11.3 µM in the assay on HOP-92 NSCLC, more than 25 µM in the assay on HCT-15 colon and more than 25 µM in the assay with HCC-2998 colon. The TGI in the assay with MOLT-4 leukemia, in the assay with HOP-62 NSCLC, in the assay on HCT-116 colon, in the assay on OVCAR-8 ovarian, with SF-268 CNS and with SK-MEL-5 melanoma was more than 25 µM in each case. Further, the TGI in the assay on U251 CNS, in the assay on HOP-92 NSCLC, with HCT-15 colon and in the assay with HCC-2998 colon was more than 25 µM each time.

As to `CCCCCCCC(=O)OC[n+]1cccc(-c2c(COC(=O)NC(C)C)c(COC(=O)NC(C)C)c3n2CCC3)c1`, the TGI in the assay on MOLT-4 leukemia is 99.4 µM; with HOP-62 NSCLC it was more than 100 µM; in the assay on HCT-116 colon, more than 100 µM; in the assay with OVCAR-8 ovarian, more than 100 µM; in the assay with SF-268 CNS, more than 100 µM; with SK-MEL-5 melanoma, more than 100 µM. In addition, the TGI with U251 CNS, in the assay with HOP-92 NSCLC, in the assay on HCT-15 colon and in the assay on HCC-2998 colon was more than 100 µM in each case.

For the molecule `O=C(/C=C/c1ccccn1)c1ccccc1`, the GI50 in the assay with MOLT-4 leukemia was 3.1 µM; with HOP-62 NSCLC, 10.2 µM; with HCT-116 colon it was 1.49 µM; in the assay on OVCAR-8 ovarian it was 4.18 µM; in the assay with SF-268 CNS it was 19.4 µM; in the assay with SK-MEL-5 melanoma it was 12.1 µM. For the same molecule, the GI50 in the assay on U251 CNS is 1.94 µM; in the assay on HOP-92 NSCLC, 10.4 µM; in the assay on HCT-15 colon, 2.66 µM; with HCC-2998 colon it was 15.4 µM. Besides, the concentration for total growth inhibition (TGI) is 27.6 µM in the assay with MOLT-4 leukemia; 22 µM with HOP-62 NSCLC; 3.77 µM with HCT-116 colon; 16.1 µM in the assay on OVCAR-8 ovarian; 36.4 µM in the assay on SF-268 CNS; 24.8 µM with SK-MEL-5 melanoma. The TGI with U251 CNS turned out to be 5.43 µM; in the assay on HOP-92 NSCLC it was 23.6 µM; in the assay on HCT-15 colon, 12.9 µM; with HCC-2998 colon it was 29.9 µM.

As for `COc1ccccc1CNCCCN1C(=O)c2ccc3c4c(ccc(c24)C1=O)C(=O)N(CCCNCCCCN)C3=O`, the GI50 with MOLT-4 leukemia was 0.324 µM; with HOP-62 NSCLC, 0.546 µM; in the assay with HCT-116 colon, 0.216 µM; in the assay with OVCAR-8 ovarian, 0.244 µM; with SF-268 CNS, 0.29 µM; with SK-MEL-5 melanoma, 0.164 µM. Moreover, the GI50 in the assay on U251 CNS was 0.206 µM; in the assay with HOP-92 NSCLC it was 0.4 µM; in the assay with HCT-15 colon, 1.85 µM; in the assay with HCC-2998 colon it was 0.171 µM. Further, the TGI in the assay on MOLT-4 leukemia was found to be 1.26 µM; in the assay on HOP-62 NSCLC, 2.1 µM; in the assay on HCT-116 colon it was 0.694 µM; in the assay on OVCAR-8 ovarian it was 0.933 µM; in the assay with SF-268 CNS it was 1.68 µM; in the assay on SK-MEL-5 melanoma, 0.303 µM. Also, the TGI is 0.731 µM with U251 CNS, 1.65 µM with HOP-92 NSCLC, 10.8 µM in the assay with HCT-15 colon and 0.417 µM with HCC-2998 colon.

Turning to `Nc1cccc(C(=O)/C=C/c2ccccc2O)c1`, the TGI in the assay with MOLT-4 leukemia, in the assay on HOP-62 NSCLC, with HCT-116 colon, in the assay with OVCAR-8 ovarian, in the assay on SF-268 CNS and with SK-MEL-5 melanoma was more than 100 µM throughout. The concentration for total growth inhibition (TGI) with U251 CNS, in the assay on HOP-92 NSCLC, in the assay on HCT-15 colon and in the assay with HCC-2998 colon was more than 100 µM each time.

`COc1ccc2cc1Oc1ccc(cc1)CC1c3c(cc(OC)c4c3Oc3cc5c(cc3O4)CCNC5C2)CCN1C` (stereo not given): the TGI with MOLT-4 leukemia was 3.44 µM; in the assay with HOP-62 NSCLC, 5.06 µM and 2.95 µM; in the assay with HCT-116 colon, 3.32 µM; in the assay on OVCAR-8 ovarian, 3.2 µM; with SF-268 CNS it was 3.84 µM; in the assay with SK-MEL-5 melanoma, 3.98 µM. For the same molecule, the TGI with U251 CNS is 3.2 µM; with HOP-92 NSCLC, 6.76 µM; with HCT-15 colon it was 3.73 µM and 4.31 µM; with HCC-2998 colon it was 2.53 µM and 2.5 µM. Also, the GI50 with HOP-62 NSCLC is 1.59 µM; with HCT-116 colon, 1.84 µM; with U251 CNS, 1.68 µM; in the assay with HCT-15 colon it was 1.86 µM; in the assay on HCC-2998 colon it was 1.2 µM.

As to `CNC(=O)N(CCCCC(NC(C)=O)C(=O)NCc1ccccc1)Cc1ccccc1` (stereo not given), the TGI in the assay with MOLT-4 leukemia, with HOP-62 NSCLC, with HCT-116 colon, with OVCAR-8 ovarian, in the assay on SF-268 CNS and in the assay with SK-MEL-5 melanoma was more than 100 µM each time. Besides, the TGI in the assay on U251 CNS, in the assay with HOP-92 NSCLC, in the assay on HCT-15 colon and in the assay on HCC-2998 colon was more than 100 µM in each case.

On to `O=[N+]([O-])/C(=C/C=C/c1ccccc1)c1ccccc1`, for which the GI50 with MOLT-4 leukemia was 1.47 µM; in the assay on HOP-62 NSCLC it was 7.29 µM; with HCT-116 colon it was 1.88 µM; with OVCAR-8 ovarian, 3.27 µM; with SF-268 CNS, 2.96 µM; in the assay with SK-MEL-5 melanoma, 3.16 µM. Also, the GI50 in the assay on U251 CNS is 1.67 µM; in the assay on HOP-92 NSCLC, 1.54 µM; in the assay on HCT-15 colon it was 1.86 µM; in the assay on HCC-2998 colon it was 1.92 µM. In addition, the concentration for total growth inhibition (TGI) was 3.61 µM in the assay with MOLT-4 leukemia; 21.4 µM in the assay on HOP-62 NSCLC; 3.62 µM in the assay with HCT-116 colon; 11.2 µM in the assay on OVCAR-8 ovarian; 8.93 µM in the assay on SF-268 CNS; 12.1 µM in the assay with SK-MEL-5 melanoma. Further, the concentration for total growth inhibition (TGI) with U251 CNS came out at 3.17 µM; with HOP-92 NSCLC, 3.8 µM; in the assay with HCT-15 colon it was 4.22 µM; in the assay on HCC-2998 colon, 4.14 µM.
